Assay results: patent US20070190520A1, “METHOD OF CHARACTERIZING A BIOLOGICALLY ACTIVE COMPOUND” (priority 2006, published 2007)

Test system: Adult stem cells from peripheral blood (CD34+/CD38−)
Experiment: viability and cell number of peripheral blood stem cells expanded in a rotatable TVEMF bioreactor (Example 4)
Format: cell-based
Conditions: 20 ppm added at initiation, end of 14 days, Sample 2 cells from an individual with known liver damage
Description: The rotatable bioreactor may preferably be filled with culture medium consisting of Isocove's modified Dulbecco's medium (IMDM) (GIBCO, Grand Island N.Y.), supplemented with 5% human albumin, 100 ng/ml recombinant human G-CSF (Amgen Inc., Thousand Oaks, Calif.), and 100 ng/ml recombinant human stem cell factor (SCF) (Amgen). In addition, D-Penicillamine [D(−)-2-Amino-3-mercapto-3-methylbutonoic acid] (Sigma-Aldrich) a copper chelating agent, dissolved in DMSO, may preferably be introduced to the culture medium in the rotatable bioreactor in an amount of 10 ppm. Adult stem cells from peripheral blood (CD34+/CD38−) may preferably be placed in the culture chamber of the rotatable bioreactor at a concentration of 0.75×10^6 cells/ml.
Two samples of peripheral blood stem cells should preferably be prepared by this method. Sample 1 should preferably be from an individual with no known liver damage. Sample 2 should preferably be from an individual with known liver damage. The samples should be prepared as above and placed in two different rotatable bioreactors under the conditions noted in Example 1 and at the same concentrations.

## CC(=O)Nc1ccc(O)cc1 [acetaminophen]
  viability and number of cells counted: neither die nor grow, but rather, remain unchanged
